{"source": "paper PMC8364251", "about": "(Pharmacological Research, 2021)", "key": {"Spike-RBD protein": {"molecular_target": "Spike-RBD protein (Severe acute respiratory syndrome coronavirus 2, UniProt P0DTC2)", "type": "binding, SARS-CoV-2", "settings": "BLI screening"}, "RBD": {"molecular_target": "RBD (Severe acute respiratory syndrome coronavirus 2, UniProt P0DTC2)", "settings": "streptavidin probes; cited from earlier work"}, "RBD-ACE2 binding": {"molecular_target": "RBD-ACE2 binding (Severe acute respiratory syndrome coronavirus 2, UniProt P0DTC2)", "assay": "ELISA ACE2:SARS-CoV-2 Spike inhibitor screening assay", "settings": "25–200 μM compounds"}, "human ACE2": {"molecular_target": "human ACE2 (Homo sapiens, UniProt Q9BYF1)", "sequence (Q9BYF1 18-805)": "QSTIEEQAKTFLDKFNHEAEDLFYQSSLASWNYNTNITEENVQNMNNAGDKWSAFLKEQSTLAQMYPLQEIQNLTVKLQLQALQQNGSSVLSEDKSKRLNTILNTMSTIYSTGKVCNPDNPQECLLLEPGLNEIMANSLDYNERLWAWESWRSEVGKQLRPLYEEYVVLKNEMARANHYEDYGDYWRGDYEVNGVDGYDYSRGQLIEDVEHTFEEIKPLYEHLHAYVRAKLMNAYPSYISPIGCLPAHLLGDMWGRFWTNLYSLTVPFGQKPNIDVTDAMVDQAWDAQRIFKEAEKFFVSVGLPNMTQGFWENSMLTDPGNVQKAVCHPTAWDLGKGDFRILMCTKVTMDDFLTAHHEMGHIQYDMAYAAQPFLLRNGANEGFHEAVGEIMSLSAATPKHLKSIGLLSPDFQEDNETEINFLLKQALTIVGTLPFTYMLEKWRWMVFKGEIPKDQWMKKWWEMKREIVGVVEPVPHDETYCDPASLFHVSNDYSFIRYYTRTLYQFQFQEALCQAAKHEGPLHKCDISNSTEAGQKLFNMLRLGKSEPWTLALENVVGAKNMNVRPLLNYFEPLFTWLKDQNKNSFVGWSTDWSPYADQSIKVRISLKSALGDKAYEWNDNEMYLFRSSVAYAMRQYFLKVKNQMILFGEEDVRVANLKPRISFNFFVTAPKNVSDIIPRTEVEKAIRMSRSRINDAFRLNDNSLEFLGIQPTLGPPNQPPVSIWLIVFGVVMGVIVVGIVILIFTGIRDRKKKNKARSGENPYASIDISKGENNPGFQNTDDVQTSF", "type": "binding"}, "[1]": {"tested_on": "SARS-CoV-2-pseudotyped lentivirus", "type": "cell-based", "settings": "concentrations up to 100 μM"}, "authentic SARS-CoV-2": {"tested_on": "authentic SARS-CoV-2", "settings": "cited from earlier work"}, "HEK293": {"tested_on": "HEK293", "type": "cell-based, human", "settings": "HEK293 cells"}, "SARS-CoV-2 [2]": {"tested_on": "SARS-CoV-2", "assay": "Plaque formation assay", "settings": "Vero E6"}, "SARS-CoV-2 [3]": {"tested_on": "SARS-CoV-2", "assay": "Authentic SARS-CoV-2 CPE reduction assay in Vero E6 cells", "type": "cell-based"}, "[4]": {"settings": "200 and 300 mg/kg/day oral, 7 days"}, "H1N1 influenza virus": {"tested_on": "H1N1 influenza virus", "settings": "cited from earlier work"}, "zika virus": {"tested_on": "zika virus", "settings": "cited from earlier work"}, "Ebola virus": {"tested_on": "Ebola virus", "settings": "cited from earlier work"}, "HIV-1 protease": {"tested_on": "HIV-1 protease", "settings": "cited from earlier work"}}, "note": "pEC50, pIC50, pKd: −log10 of the molar value. “Also recorded” adds a separate entry of the source.", "data": [{"compound": "O=C(/C=C/c1ccc(O)c2oc(-c3ccc(O)c(O)c3)cc12)O[C@H](Cc1ccc(O)c(O)c1)C(=O)O", "note": "[SalC, Salvianolic acid C]", "values": [{"measurement": "pKd", "setting": "Spike-RBD protein", "value": 5.21}, {"measurement": "binding activity to RBD measured by BLI", "setting": "RBD", "value": "weak binding activity to RBD"}]}, {"compound": "bavachinin [Bvcn]", "values": [{"measurement": "activity in ELISA (inhibition of RBD-ACE2 binding)", "setting": "RBD-ACE2 binding", "value": "high activities"}]}, {"compound": "C[C@H]1CC[C@@]2(OC1)O[C@H]1C[C@H]3[C@@H]4CC[C@@H]5C[C@@H](O[C@@H]6O[C@H](CO)[C@H](O)[C@H](O)[C@H]6O[C@@H]6O[C@H](CO)[C@@H](O)[C@H](O)[C@H]6O)CC[C@]5(C)[C@H]4CC[C@]3(C)[C@H]1[C@@H]2C", "note": "[TimA, timosaponin A III]", "values": [{"measurement": "activity in ELISA (inhibition of RBD-ACE2 binding)", "setting": "RBD-ACE2 binding", "value": "almost inactive"}]}, {"compound": "C=C[C@@](C)(/C=C/c1ccc(O)cc1)CCC=C(C)C", "note": "[Bkc, bakuchiol]", "values": [{"measurement": "binding to ACE2 in BLI", "setting": "human ACE2", "value": "bound to ACE2 receptor"}, {"measurement": "activity in ELISA (inhibition of RBD-ACE2 binding)", "setting": "RBD-ACE2 binding", "value": "weakly active; also recorded: lacked activity"}, {"measurement": "inhibition of pseudovirus entry", "setting": "[1]", "value": "effectively inhibited pseudovirus entry"}]}, {"compound": "CC(C)=CCc1cc2c(cc1O)O[C@H](c1ccc(O)cc1)CC2=O", "note": "[Bvc, bavachin]", "values": [{"measurement": "activity in ELISA (inhibition of RBD-ACE2 binding)", "setting": "RBD-ACE2 binding", "value": "high activities"}, {"measurement": "effect against authentic SARS-CoV-2", "setting": "authentic SARS-CoV-2", "value": "effective against authentic SARS-CoV-2"}]}, {"compound": "COc1ccc(C[C@@H]2c3cc(Oc4cc(C[C@@H]5c6cc(O)c(OC)cc6CCN5C)ccc4O)c(OC)cc3CCN2C)cc1", "note": "[Isl, isoliensinine]", "values": [{"measurement": "activity in ELISA (inhibition of RBD-ACE2 binding)", "setting": "RBD-ACE2 binding", "value": "high activities"}, {"measurement": "cytotoxicity", "setting": "HEK293", "value": "toxicity"}, {"measurement": "effect against authentic SARS-CoV-2", "setting": "authentic SARS-CoV-2", "value": "effective against authentic SARS-CoV-2"}, {"measurement": "inhibition of plaque formation", "setting": "SARS-CoV-2 [2]", "value": "inhibited plaque formation"}]}, {"compound": "O=C(/C=C/c1ccc(O)c(O)c1)OC[C@H]1O[C@@H](OCCc2ccc(O)c(O)c2)[C@H](O)[C@@H](O)[C@@H]1O", "note": "[CalB, calceolarioside B]", "values": [{"measurement": "activity in ELISA (inhibition of RBD-ACE2 binding)", "setting": "RBD-ACE2 binding", "value": "weakly active"}]}, {"compound": "O=C(/C=C/c1ccc(O)c(O)c1/C=C/c1ccc(O)c(O)c1)O[C@H](Cc1ccc(O)c(O)c1)C(=O)O", "note": "[SalA, salvianolic acid A]", "values": [{"measurement": "activity in ELISA (inhibition of RBD-ACE2 binding)", "setting": "RBD-ACE2 binding", "value": "high activities"}, {"measurement": "inhibition of pseudovirus entry", "setting": "[1]", "value": "weakly inhibited pseudovirus entry"}, {"measurement": "inhibition of SARS-CoV-2-induced cytopathic effect", "setting": "SARS-CoV-2 [3]", "value": "effective"}, {"measurement": "inhibition of plaque formation", "setting": "SARS-CoV-2 [2]", "value": "effective"}]}, {"compound": "CC(C)=CCc1c(O)ccc(C(=O)/C=C/c2ccc(O)cc2)c1O", "note": "[Ibvc, isobavachalcone]", "values": [{"measurement": "binding to ACE2 in BLI", "setting": "human ACE2", "value": "bound to ACE2 receptor"}, {"measurement": "activity in ELISA (inhibition of RBD-ACE2 binding)", "setting": "RBD-ACE2 binding", "value": "weakly active; also recorded: lacked activity"}, {"measurement": "inhibition of pseudovirus entry", "setting": "[1]", "value": "effectively inhibited pseudovirus entry"}, {"measurement": "inhibition of SARS-CoV-2-induced cytopathic effect", "setting": "SARS-CoV-2 [3]", "value": "effective"}, {"measurement": "inhibition of plaque formation", "setting": "SARS-CoV-2 [2]", "value": "effective"}]}, {"compound": "COc1ccc2cc1Oc1ccc(cc1)C[C@H]1c3c(cc4c(c3Oc3cc5c(cc3OC)CCN(C)[C@@H]5C2)OCO4)CCN1C", "note": "[Ceph, cepharanthine]", "values": [{"measurement": "activity in ELISA (inhibition of RBD-ACE2 binding)", "setting": "RBD-ACE2 binding", "value": "almost inactive"}, {"measurement": "effect against authentic SARS-CoV-2", "setting": "authentic SARS-CoV-2", "value": "effective against authentic SARS-CoV-2"}]}, {"compound": "O=C(O[C@@H]1Cc2c(O)cc(O)cc2O[C@@H]1c1cc(O)c(O)c(O)c1)c1cc(O)c(O)c(O)c1", "note": "[EGCG, epigallocatechin gallate]", "values": [{"measurement": "binding to ACE2 in BLI", "setting": "human ACE2", "value": "bound to ACE2 receptor"}, {"measurement": "activity in ELISA (inhibition of RBD-ACE2 binding)", "setting": "RBD-ACE2 binding", "value": "high activities"}, {"measurement": "inhibition of pseudovirus entry", "setting": "[1]", "value": "effectively inhibited pseudovirus entry"}, {"measurement": "inhibition of SARS-CoV-2-induced cytopathic effect", "setting": "SARS-CoV-2 [3]", "value": "effective"}, {"measurement": "body weights", "setting": "[4]", "value": "no adverse effect"}, {"measurement": "survival", "setting": "[4]", "value": "no adverse effect"}, {"measurement": "organ weights", "setting": "[4]; liver, kidney, lung, spleen, thymus", "value": "no adverse effect"}, {"measurement": "pEC50", "setting": "H1N1 influenza virus", "value": "4.55 to 4.66"}, {"measurement": "pEC50", "setting": "zika virus", "value": 4.67}, {"measurement": "pEC50", "setting": "Ebola virus", "value": 4.30}, {"measurement": "pIC50", "setting": "HIV-1 protease", "value": "4.00 to 4.30"}, {"measurement": "inhibition of plaque formation", "setting": "SARS-CoV-2 [2]", "value": "effective"}]}]}
